Patent US10034915B2, “Small heat shock proteins and active fragments thereof as a therapy for inflammation and ischemia” (The Board of Trustees of the Leland Stanford Junior …, priority 2011, dated 2018)
“Also recorded” adds a separate entry of the source.

Experiments:
Assay type in all cases: in vivo, mouse
[1] = tested on: stroke in Cryab−/− mice; assay: Cerebral ischemia (middle cerebral artery occlusion) in Cryab−/− mice, lesion size by silver stain; settings: IP 1 h before stroke, 12 h, 24 h and daily for seven days, vs PBS treated Cryab−/−
Description: To test if increased plasma Cryab after stroke was beneficial, Cryab^−/− mice were given intraperitoneal injections of recombinant Cryab protein starting 1 h before stroke onset and continuing at 12 h, 24 h and daily afterwards for seven days in total.
Induction of cerebral ischemia. We used 12 to 14-week-old, male mice weighing 25-30 g. The weights of the animals in all experimental groups were similar. We used filament occlusion model of cerebral ischemia as described. Briefly, mice were anesthetized with 2% isoflurane in a mixture of 20% oxygen and 80% air. After the surgical exposure, the left external and common carotid arteries were permanently ligated. Then, a 7-0 mm, silicon rubber-coated, reusable monofilament (Doccol Inc, 70SPRe2045) was inserted into the left common carotid artery and advanced towards the left internal carotid artery 9-10 mm after the left carotid bifurcation. The core body temperature was checked by a rectal probe and maintained at 37° C. throughout the surgery by a heating pad and lamp. The cerebral blood flow was measured by a laser Doppler flow-meter and at least 80% reduction compared to presurgical baseline values was achieved after the insertion of the filament. The flowmeter probe was placed 2 mm posterior and 5-6 mm lateral to the bregma on the skull. The reperfusion was achieved by withdrawal of the filament 30 min after the insertion. […]

[2] = tested on: splenocytes stimulated with anti-CD3/anti-CD28, concanavalin-A or LPS; assay: Splenocyte cytokine response at 7 d after stroke, Cryab−/− mice; settings: Cryab treated vs PBS treated Cryab−/− mice
Description: The effects of Cryab treatment on splenocytes isolated from PBS treated wild-type and Cryab^−/− mice and Cryab treated Cryab^−/− mice were assessed at 7 d after stroke. Splenocytes from PBS treated Cryab^−/− mice produced more pro-inflammatory IL-2, IL-17 and TNF when stimulated with anti-CD3/anti-CD28 than both PBS-treated wild-type mice and Cryab-treated Cryab^−/− mice splenocytes (FIG. 12e). When stimulated by concanavalin-A, splenocytes from PBS treated Cryab^−/− mice produced more pro-inflammatory IFN-γ, TNF, IL-12p40 and less anti-inflammatory IL-10 compared to the splenocytes from both PBS treated wild-type and Cryab treated Cryab^−/− mice (FIG. 12e). When stimulated with LPS, splenocytes from PBS treated Cryab^−/− mice produced more TNF and less IL-10 compared to the splenocytes from both PBS treated wild-type mice and Cryab treated Cryab^−/− mice (FIG. 12e).

[3] = tested on: stroke in wild-type mice; assay: Cerebral ischemia (30 min middle cerebral artery filament occlusion) in wild-type mice, lesion size; settings: vs PBS
Description: Because the restoration of plasma Cryab in Cryab^−/− mice decreased the lesion size, we next investigated whether administration of Cryab into wild-type mice would have a similar effect. When Cryab was administered beginning 1 h before stroke onset and then at 12 hrs after, the lesion size at 2 d was not different between PBS and Cryab treated wild-type mice groups (FIG. 14a).
Induction of cerebral ischemia. We used 12 to 14-week-old, male mice weighing 25-30 g. The weights of the animals in all experimental groups were similar. We used filament occlusion model of cerebral ischemia as described. Briefly, mice were anesthetized with 2% isoflurane in a mixture of 20% oxygen and 80% air. After the surgical exposure, the left external and common carotid arteries were permanently ligated. Then, a 7-0 mm, silicon rubber-coated, reusable monofilament (Doccol Inc, 70SPRe2045) was inserted into the left common carotid artery and advanced towards the left internal carotid artery 9-10 mm after the left carotid bifurcation. The core body temperature was checked by a rectal probe and maintained at 37° C. throughout the surgery by a heating pad and lamp. The cerebral blood flow was measured by a laser Doppler flow-meter and at least 80% reduction compared to presurgical baseline values was achieved after the insertion of the filament. The flowmeter probe was placed 2 mm posterior and 5-6 mm lateral to the bregma on the skull. The reperfusion was achieved by withdrawal of the filament 30 min after the insertion. After the closure of the surgical wound and the mice were returned to their cages with free access to water and food.

Substance: αB-crystallin [HSPB5]
- lesion size at 7 d after stroke [1]: significantly decreased; also recorded: confers neuroprotection
- peripheral inflammatory response (splenocyte cytokines) [2]: modulates the peripheral inflammatory response
- blood pressure, pulse rate, plasma glucose and lactate levels and arterial blood gas analysis ([3]; before, during or after cerebral ischemia): no differences
- lesion size at 2 d after stroke (TTC staining) ([3]; wild-type mice, given 1 h before stroke onset and 12 hrs after): not different
- lesion size at 7 d after stroke (silver stain) ([3]; wild-type mice, given 1 h before, 12 h, 24 h after and daily for seven days): significantly reduced
- lesion size at 7 d after stroke (silver stain) ([3]; wild-type mice, initial treatment 12 h after stroke onset, listed as Cryab): reduced stroke pathology; also recorded: conferred neuroprotection
